This is an account of results in patent US20110319392A1, “Thiazole Sulfonamide And Oxazole Sulfonamide Kinase Inhibitors” (priority 2009, published 2011).

As a reminder, the IC50 is the concentration at which inhibition is half-maximal. Read a high IC50 as a need for much substance.

SMILES strings stand for the structures.

For one assay, the system named is SK-MEL-28 tumor cells. Briefly: Cell growth inhibition assay (CellTiter-Glo), SK-MEL-28. In kind it is cell-based, Human. As to conditions: Homo sapiens, SK-MEL-28, 72 h; 3 days incubation. Summed up: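 Cells plated at 500 cells/well in their growth media, dosed next day with nine-step 1:3 compound dilutions (final DMSO 0.2%), then incubated 3 days at 37° C, 5% CO2. Total ATP read by CellTiter-Glo luminescence as a surrogate for cell number; IC50 interpolated from 4-parameter fit versus DMSO controls.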
On the technique in general: Cellular ATP, detected with luciferase, serves as a proxy for viable cell number.

Another assay concerns the target T1, EGFR (Homo sapiens, UniProt P00533).
T1 construct: made in house; host or cells: baculovirus expression system
As to the kind of experiment: EGFR substrate phosphorylation assay (HTRF). The class given is biochemical. The procedure, abridged: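 Baculovirus-expressed EGFR (0.8 nM) or ErbB2 (10 nM) in enzyme mix, preincubated 1 h at 20 °C with compound (0.00027–47.6 μM final), then 90 min at 20 °C with substrate mix of 20 μM ATP, 0.8 uM biotinylated Peptide C, MnCl2, MOPS pH 7.5. Phosphotyrosine by HTRF; pIC50 reported.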

A further assay relates to BT474 tumor cells. As to the kind of experiment: Cell growth inhibition assay (CellTiter-Glo), BT474. In kind it is cell-based, Human. The settings on record: Homo sapiens, BT-474, 72 h, 3 days incubation.

T1 sequence (P00533 25-1210): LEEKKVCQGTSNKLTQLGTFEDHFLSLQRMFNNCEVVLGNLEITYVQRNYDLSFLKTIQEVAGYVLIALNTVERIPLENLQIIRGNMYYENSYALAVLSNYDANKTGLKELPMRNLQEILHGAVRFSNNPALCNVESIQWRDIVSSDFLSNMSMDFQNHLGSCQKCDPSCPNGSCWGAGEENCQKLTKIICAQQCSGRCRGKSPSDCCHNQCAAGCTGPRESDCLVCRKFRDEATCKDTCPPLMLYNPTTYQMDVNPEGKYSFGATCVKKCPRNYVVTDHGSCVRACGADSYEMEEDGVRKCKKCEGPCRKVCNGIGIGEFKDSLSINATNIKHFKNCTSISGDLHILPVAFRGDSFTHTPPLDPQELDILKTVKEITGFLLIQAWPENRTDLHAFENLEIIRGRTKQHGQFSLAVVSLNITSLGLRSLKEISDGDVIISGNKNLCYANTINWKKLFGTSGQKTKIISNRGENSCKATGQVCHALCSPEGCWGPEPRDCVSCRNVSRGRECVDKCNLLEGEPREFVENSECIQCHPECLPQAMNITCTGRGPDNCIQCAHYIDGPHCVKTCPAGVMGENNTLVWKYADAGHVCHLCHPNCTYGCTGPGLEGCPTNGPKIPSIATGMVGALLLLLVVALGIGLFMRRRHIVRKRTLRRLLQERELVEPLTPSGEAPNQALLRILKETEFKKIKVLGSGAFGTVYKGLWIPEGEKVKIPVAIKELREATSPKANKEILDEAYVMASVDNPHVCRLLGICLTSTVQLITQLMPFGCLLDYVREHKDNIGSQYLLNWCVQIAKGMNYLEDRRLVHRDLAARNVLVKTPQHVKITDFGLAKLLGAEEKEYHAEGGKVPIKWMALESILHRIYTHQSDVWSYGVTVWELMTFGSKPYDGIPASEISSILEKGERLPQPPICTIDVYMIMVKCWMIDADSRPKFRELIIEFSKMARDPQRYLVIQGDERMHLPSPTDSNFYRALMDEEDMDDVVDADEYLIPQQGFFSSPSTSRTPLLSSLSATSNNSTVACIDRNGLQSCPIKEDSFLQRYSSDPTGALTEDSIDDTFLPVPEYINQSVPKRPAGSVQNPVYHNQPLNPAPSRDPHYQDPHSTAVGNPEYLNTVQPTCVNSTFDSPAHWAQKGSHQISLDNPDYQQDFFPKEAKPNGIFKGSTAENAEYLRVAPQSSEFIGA

On to `CC(C)c1nc(-c2cccc(NS(=O)(=O)c3ccccc3)c2)c(-c2ccnc(Nc3ccc(N4CCOCC4)cn3)n2)s1` [Example 92], for which the IC50 was 100 to 1000 nM with SK-MEL-28 tumor cells, above 1000 nM at EGFR and above 1000 nM in the assay with BT474 tumor cells.

As to `CC(C)c1nc(-c2cccc(NS(=O)(=O)c3ccccc3)c2)c(-c2ccnc(Nc3ccc(CC4CCN(CCS(C)(=O)=O)CC4)c(F)c3)n2)s1` [Example 72], the values for the IC50 with SK-MEL-28 tumor cells, at EGFR and in the assay with BT474 tumor cells were 100 to 1000 nM, 100 to 1000 nM and above 1000 nM, respectively.

On to `CC(C)c1nc(-c2cc(F)cc(NS(=O)(=O)c3c(F)cccc3F)c2)c(-c2ccnc(Nc3ccc(N4CCOCC4)nc3)n2)s1` [Example 84], for which the 50% inhibitory concentration (IC50) in the assay with SK-MEL-28 tumor cells is below 100 nM; on EGFR, 100 to 1000 nM; with BT474 tumor cells, above 1000 nM.

As for `CC(C)c1nc(-c2cccc(NS(=O)(=O)c3ccccc3)c2)c(-c2ccnc(Nc3ccc(N4CCN(CCS(C)(=O)=O)CC4)c(F)c3F)n2)s1` [Example 74], the IC50 in the assay on SK-MEL-28 tumor cells was 100 to 1000 nM; against EGFR, above 1000 nM; in the assay with BT474 tumor cells, above 1000 nM.

Take `CC(C)c1nc(-c2cccc(NS(=O)(=O)c3c(F)cccc3F)c2)c(-c2ccnc(Nc3ccc(N4CC[C@@H](O)C4)nc3)n2)s1` [Example 89]: the IC50 with SK-MEL-28 tumor cells is below 100 nM; against EGFR, 100 to 1000 nM; in the assay on BT474 tumor cells, above 1000 nM.

As to `CC(C)c1nc(-c2cc(F)cc(NS(=O)(=O)c3c(F)cccc3F)c2)c(-c2ccnc(Nc3ccc(N4CCOCC4)c(F)c3)n2)s1` [Example 85], the IC50 with SK-MEL-28 tumor cells was below 100 nM; against EGFR, above 1000 nM.

Consider `CC(C)c1nc(-c2cccc(NS(=O)(=O)c3c(F)cccc3F)c2)c(-c2ccnc(Nc3ccc(N4CCCN(CCS(C)(=O)=O)CC4)nc3)n2)s1` [Example 88], for which the IC50 is below 100 nM in the assay with SK-MEL-28 tumor cells, 100 to 1000 nM against EGFR and above 1000 nM in the assay on BT474 tumor cells.

For the compound `CC(C)c1nc(-c2cccc(NS(=O)(=O)c3c(F)cccc3F)c2)c(-c2ccnc(Nc3cccc(N4CCN(C)CC4)c3)n2)s1` [Example 81], the concentration for half-maximal inhibition (IC50) in the assay with SK-MEL-28 tumor cells was below 100 nM; against EGFR it was below 100 nM; in the assay on BT474 tumor cells, above 1000 nM.

On to `Cc1cc(N2CCC(N3CCCCC3)CC2)ccc1Nc1nccc(-c2sc(C(C)C)nc2-c2cccc(NS(=O)(=O)c3c(F)cccc3F)c2)n1` [Example 91], for which the IC50 with SK-MEL-28 tumor cells was below 100 nM; against EGFR it was below 100 nM; in the assay on BT474 tumor cells it was above 1000 nM.

As for `COc1cc(N2CCN(CCF)CC2)ccc1Nc1nccc(-c2sc(C(C)C)nc2-c2cccc(NS(=O)(=O)c3c(F)cccc3F)c2)n1` [Example 79], the concentration for half-maximal inhibition (IC50) in the assay on SK-MEL-28 tumor cells is 100 to 1000 nM; at EGFR it was 100 to 1000 nM; in the assay with BT474 tumor cells, above 1000 nM.

Take `CC(C)c1nc(-c2cccc(NS(=O)(=O)c3c(F)cccc3F)c2)c(-c2ccnc(Nc3cc(F)c(N4CCN(CCS(C)(=O)=O)CC4)cc3F)n2)s1` [Example 87]: the 50% inhibitory concentration (IC50) in the assay with SK-MEL-28 tumor cells was below 100 nM; on EGFR, above 1000 nM; with BT474 tumor cells, above 1000 nM.

`CC(C)c1nc(-c2ccc(F)c(NS(=O)(=O)c3c(F)cccc3F)c2)c(-c2ccnc(Nc3ccc(N4CCN(CCS(C)(=O)=O)CC4)c(F)c3)n2)s1` [Example 95]: the IC50 with SK-MEL-28 tumor cells is below 100 nM; against EGFR it was 100 to 1000 nM; with BT474 tumor cells, above 1000 nM.

For the compound `CC(C)c1nc(-c2cccc(NS(=O)(=O)c3c(F)cccc3F)c2)c(-c2ccnc(Nc3ccc(N4CCN(CCO)CC4)nc3)n2)s1` [Example 80], the results for the half-inhibitory concentration (IC50) in the assay on SK-MEL-28 tumor cells, at EGFR and with BT474 tumor cells were below 100 nM, below 100 nM and above 1000 nM, respectively.

On to `CC(C)c1nc(-c2cc(F)cc(NS(=O)(=O)c3ccc(F)cc3)c2)c(-c2ccnc(Nc3ccc(N4CCOCC4)c(F)c3)n2)s1` [Example 83], for which the IC50 in the assay on SK-MEL-28 tumor cells is 100 to 1000 nM; on EGFR it was above 1000 nM; with BT474 tumor cells it was above 1000 nM.

In the case of `CC(C)c1nc(-c2cccc(NS(=O)(=O)c3c(F)cccc3F)c2)c(-c2ccnc(Nc3ccc(N4CCCNCC4)nc3)n2)s1` [Example 82], the half-inhibitory concentration (IC50) in the assay on SK-MEL-28 tumor cells is below 100 nM; on EGFR, below 100 nM; in the assay on BT474 tumor cells, above 1000 nM.

`CC(C)c1nc(-c2cccc(NS(=O)(=O)c3ccccc3)c2)c(-c2ccnc(Nc3ccc(F)c(N4CCN(CCS(C)(=O)=O)CC4)c3)n2)s1` [Example 73]: the IC50 in the assay with SK-MEL-28 tumor cells is below 100 nM; at EGFR, 100 to 1000 nM; with BT474 tumor cells, above 1000 nM.

For `CC(=O)N1CCN(c2ccc(Nc3nccc(-c4sc(C(C)C)nc4-c4cccc(NS(=O)(=O)c5cc(F)ccc5F)c4)n3)cn2)CC1` [Example 96], the half-inhibitory concentration (IC50) is below 100 nM with SK-MEL-28 tumor cells, 100 to 1000 nM against EGFR and above 1000 nM in the assay on BT474 tumor cells.

On to `C=C(C)c1nc(-c2cccc(NS(=O)(=O)c3c(F)cccc3F)c2)c(-c2ccnc(Nc3ccc(N4CCN(CCF)CC4)c(F)c3)n2)s1` [Example 93], for which the results for the IC50 in the assay on SK-MEL-28 tumor cells, at EGFR and in the assay on BT474 tumor cells were 100 to 1000 nM, 100 to 1000 nM and above 1000 nM, respectively.

Take `CCc1nc(-c2cccc(NS(=O)(=O)c3ccccc3)c2)c(-c2ccnc(Nc3ccc(OC)c(N4CCN(CCS(C)(=O)=O)CC4)c3)n2)s1` [Example 5, N-[3-(2-Ethyl-5-{2-[(4-(methyloxy)-3-{4-[2-(methylsulfonyl)ethyl]-1-piperazinyl}phenyl)amino]-4-pyrimidinyl}-1,3-thiazol-4-yl)phenyl]benzenesulfonamide]: the IC50 with SK-MEL-28 tumor cells was below 100 nM; at EGFR it was 100 to 1000 nM; with BT474 tumor cells, 100 to 1000 nM.

Take `CC(C)c1nc(-c2cccc(NS(=O)(=O)c3c(F)cccc3F)c2)c(-c2ccnc(Nc3ccc(N4CCN(C(C)C)CC4)cc3O)n2)s1` [Example 78]: the IC50 in the assay with SK-MEL-28 tumor cells is below 100 nM; against EGFR, 100 to 1000 nM; in the assay on BT474 tumor cells, above 1000 nM.

Take `CCc1nc(-c2cccc(NS(=O)(=O)c3ccccc3)c2)c(-c2ccnc(Nc3ccc(N4CCOCC4)c(F)c3)n2)s1` [Example 4]: the IC50 with SK-MEL-28 tumor cells is 100 to 1000 nM; on EGFR, above 1000 nM; with BT474 tumor cells, above 1000 nM.

On to `CC(=O)N1CCc2cc(Nc3nccc(-c4sc(C(C)C)nc4-c4cccc(NS(=O)(=O)c5ccccc5)c4)n3)ccc21` [Example 71], for which the IC50 in the assay with SK-MEL-28 tumor cells was below 100 nM; against EGFR, 100 to 1000 nM; in the assay on BT474 tumor cells, above 1000 nM.

For `CCc1nc(-c2cccc(NS(=O)(=O)c3ccccc3)c2)c(-c2ccnc(Nc3ccc(N4CCN(C(C)=O)CC4)nc3)n2)s1` [Example 3, N-{3-[5-(2-{[6-(4-Acetyl-1-piperazinyl)-3-pyridinyl]amino}-4-pyrimidinyl)-2-ethyl-1,3-thiazol-4-yl]phenyl}benzenesulfonamide], the IC50 with SK-MEL-28 tumor cells was below 100 nM; at EGFR, above 1000 nM; with BT474 tumor cells, above 1000 nM.
